Reference: US20140348861A1, “SYNTHETIC PEPTIDES AND RANDOM COPOLYMERS FOR THE TREATMENT OF AUTOIMMUNE DISORDERS” (NATIONAL INSTITUTE OF IMMUNOLOGY, priority 2011, published 2014)
Non-standard residues stand in square brackets, D forms with d. No end group written: not given here. β3hY = N[C@H](CC(=O)O)Cc1ccc(O)cc1; β3hK = NCCCC[C@H](N)CC(=O)O; β3hV = CC(C)[C@H](N)CC(=O)O; β3hA = C[C@H](N)CC(=O)O

Key:
[1] = test system: relapsing remitting EAE in SJL/J mice; experiment: Prophylactic (pre-treatment) efficacy in relapsing remitting EAE; format: in vivo; details: pre-treatment 0.5 mg in IFA; FIG. 2i
Protocol: (§1) To induce RR EAE or chronic progressive EAE, SJL/J or C57BL6/J mice were immunized subcutaneously with 0.2 mg of MBP (85-109) or 0.1 mg MOG (35-55) emulsified in CFA and 200 ng of pertussis toxin was injected intraperitoneally on day 0 and day 2 so as to permeablize the blood brain barrier. All the animals in various experimental groups were scored daily for clinical disability on a scale of 0-6 where 0=no neurological symptoms, 1=limp tail, 2=weakness of hind limbs or ataxia, 3=incomplete paralysis of hind limbs, 4=complete paralysis of hind limbs, 5=complete paralysis of all four limbs, 6=dead. Diseased animals were provided easy access to food and water.

[2] = test system: SJL/J mice exhibiting MBP (85-109) induced relapsing remitting form of EAE; experiment: Therapeutic activity in MBP (85-109) induced relapsing remitting EAE, treatment from day 11; format: in vivo; details: for Therapeutic activity in comparison to GA (Therapeutic activity (Analogs) − Therapeutic activity GA) / Therapeutic activity in comparison to J5 (Therapeutic activity (Analogs) − Therapeutic activity (J5)) / Therapeutic activity = % reduction in cumulative clinical disability score: SJL/J mice, RR EAE; for Therapeutic activity in comparison to GA (Therapeutic activity (Analogs) − Therapeutic activity GA) / Therapeutic activity in comparison to J5 (Therapeutic activity (Analogs) − Therapeutic activity (J5)): 0.1 mg daily for two weeks; for efficacy relative to GA: both treatment and pre-treatment scenarios
Protocol: SJL/J and C57BL6/J mice procured from Jackson's laboratory (Bar Harbor, Me.) were maintained under standard housing conditions in the central animal facility at NII as per institutional ethical committee guidelines. 8-10 week old female SJL/J mice were used throughout the study.
as §1
GA, J91, J92, S101, S102, S103 for two weeks and scored for clinical disability.

[3] = test system: MOG (35-55) induced chronic progressive EAE in C57BL6/J mice; experiment: Therapeutic effect in MOG (35-55) induced chronic progressive EAE; format: in vivo; details: daily dose of 5 mg/Kg body weight, FIGS. 2e and 2f
Protocol: as §1
Some analogs viz. […] Dosage kinetic experiments with analog S27 representing the group of analogs comprising viz.

[4] = test system: MOG (35-55) induced chronic EAE in C57BL6/J mice; experiment: Prophylactic (pre-treatment) efficacy in MOG (35-55) induced chronic EAE; format: in vivo; details: FIGS. 2j and 2k
Protocol: as §1

[5] = target: T1, HLA DR2 (Homo sapiens, UniProt P01903+P01911); experiment: Inhibition of binding of biotinylated MBP (85-99) to HLA DR2; details: 5 μM competitor, 0.5 μM biotinylated MBP (85-99); FIG. 3
T1 construct: endogenous in cells; host or cells: MGAR lymphoblastoid B cell line (IHWG, Seattle)
T1 sequence (P01903 26-254): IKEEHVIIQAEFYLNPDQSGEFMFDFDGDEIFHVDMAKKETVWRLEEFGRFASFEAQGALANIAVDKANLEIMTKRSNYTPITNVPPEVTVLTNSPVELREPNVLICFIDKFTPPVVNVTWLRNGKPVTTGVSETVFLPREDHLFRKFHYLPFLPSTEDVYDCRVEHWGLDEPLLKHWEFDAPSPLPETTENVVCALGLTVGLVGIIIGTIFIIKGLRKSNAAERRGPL
T1 sequence (P01911 30-266): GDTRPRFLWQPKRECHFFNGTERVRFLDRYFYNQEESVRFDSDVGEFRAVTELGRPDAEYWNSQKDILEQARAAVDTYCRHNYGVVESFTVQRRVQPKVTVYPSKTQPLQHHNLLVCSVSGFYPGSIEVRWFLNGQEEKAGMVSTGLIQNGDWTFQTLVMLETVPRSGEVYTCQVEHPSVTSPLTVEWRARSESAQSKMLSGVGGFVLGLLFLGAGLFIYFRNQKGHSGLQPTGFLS
Protocol: HLA DR2 molecules were affinity purified from MGAR (a lymphoblastoid B cell line expressing HLA DR2 obtained from IHWG, Seattle, Wash. —USA) cell line. Cells were cultured in RPMI 1640 supplemented with 10% FBS, 2 mM glutamine, 50 U/ml penicillin and 50 μg/ml streptomycin. The anti-DR antibody L243 was purchased from Santacruz Biotech.
HLA DR2 was purified to a purity of 90-95% by immunoaffinity purification. Briefly, MGAR cells were detergent solubilized to prepare the membrane fraction which was passed sequentially through sepharose CL-6B, normal mouse serum-affinity-gel, Protein A sepharose CL-4B and L243-protein A sepharose-CL-4B at a flow rate of around 10-11 ml/h. The final eluate was dialyzed against 0.1% deoxycholate, 10 mM Tris-HCl (pH 8.0) and concentrated using centricon concentrators from Millipore. Protein concentration was determined using bicinchoninic acid (BCA) assay (Sigma). The obtained protein fraction was also run on SDS-PAGE gel to confirm identity and purity.
Copolymers (GA, J91, J92, S101 to S109) and peptide analogs (S1-S82) at a final concentration of 5 μM were coincubated with biotinylated MBP (85-99; purchased from Bioconcept Labs Pvt. Ltd. India) at a final concentration of 0.5 μM and HLA DR2 (0.5 μg/sample) molecules for 40 h at 37° C. and transferred to a 96-well microtiter assay plates coated with 1 μg/well purified L243 mAb. Coating of microtiter plates was performed with 100 μl of L243 mAb in PBS for 18 h at 4° C. […] 3,3′,5,5′-tetramethylbenzidine (TMB, substrate for […]) was added to each well and absorbance at 410 nm was recorded on an ELISA reader (TECAN infinite M200).
Ability of analogs viz. […] Most of the analogs designed herein viz.
β^3-homo amino acid containing copolymers viz. […] Copolymers containing β^3-homo amino acids viz.

[6] = test system: spleenocytes; experiment: Th1/Th2 cytokine levels in culture supernates of spleenocytes from treatment groups; format: cell-based, mice; details: spleenocytes at the end of four weeks, FIG. 4; for decrease in IFN-γ levels: stimulated 48 h
Protocol: Levels of various cytokines in culture supernates were determined by sandwich ELISA using multiplex cytokine ELISA kit (Millipore). Briefly, 100 μl of cell culture supernates from various groups were incubated with antibody (against various pro and anti-inflammatory cytokines) coated fluorescent polystyrene beads in 96 well microtiter plates, stained with PE-conjugated secondary antibody, provided in the kit and samples were acquired on […] (Bio-rad).
Effect of a group of analogs comprising analogs viz.
Effect of β^3-homo amino acid containing copolymers viz S101, S102 and S103 on Th1/Th2 cytokine balance was studied in comparison to other copolymers viz. GA, J91, J92, for which culture supernates of spleenocytes grown in the presence of various copolymers, were assayed using ELISA to determine the levels of various cytokines. […] Most noteworthy change was in the levels of IL-2 in the S101, S102 and S103 treated groups, where the levels were brought down by 60-70%.

[7] = test system: MBP (85-109) reactive CD4+ and CD8+ T-cells; experiment: Recall (proliferative) response of CD4+ and CD8+ T-cells to MBP (85-109) after pre-treatment; format: cell-based, mice
Source text: Spleen derived dendritic cells were isolated to >95% purity using plasmacytoid dendritic cell isolation kit from Miltenyi Biotech. Spleenocytes were isolated from spleen of SJL/J mice, minced and passed through a 70 micron cell strainer (BD Falcon) to get a single cell suspension. The resulting spleenocytes were first depleted of CD3+ T cells and CD 49b/pan NK+ cells using LD depletion columns provided in the kit. The CD3 and CD 49b negative cell population was collected, counted and positive selection of CD11c+ dendritic cells was performed on positive selection columns provided in the kit. The CD11c+ population was collected by removing the column from the magnetic stand, stained with trypan blue to check the viability and purity was determined using flow cytometry.
After two weeks spleenocytes were isolated, fractioned into CD4+ and CD8+ T-cells, cultured with MBP (85-109) pulsed spleen derived dendritic cells and assayed for proliferation (^3[H]-thymidine). […] As recall response to MBP (85-109) is a direct measure of frequencies of MBP (85-109) reactive CD4+ or CD8+ T-cells, in the immunized animals.

[8] = in vivo; cited from earlier work
[9] = synthetic peptides, 0.1 mg daily for two weeks from day 11 post-immunization

| Substance | Therapeutic activity in comparison to GA (Therapeutic activity (Analogs) − Therapeutic activity GA) [2] [%] | Therapeutic activity in comparison to J5 (Therapeutic activity (Analogs) − Therapeutic activity (J5)) [2] [%] | Therapeutic activity = % reduction in cumulative clinical disability score [2, 9] [%] | other results |
| --- | --- | --- | --- | --- |
| Eβ^3Kβ^3Pβ^3Kβ^3Vβ^3Eβ^3Aβ^3Yβ^3Kβ^3Aβ^3Aβ^3Aβ^3Aβ^3Pβ^3Aβ^3 [Analog S15] | 30.91 | 26.95 | 62.25 | delay of clinical onset of disease [1]: ~3 days; efficacy relative to GA [2]: approximately two times better |
| Kβ^3Vβ^3Eβ^3Aβ^3Yβ^3Kβ^3Aβ^3Aβ^3Aβ^3Aβ^3 ([β3hK][β3hV]X[β3hA][β3hY][β3hK][β3hA][β3hA][β3hA][β3hA]; not fully specified (residue 3); printed as Kβ^3Vβ^3Eβ^3Aβ^3Yβ^3Kβ^3Aβ^3Aβ^3Aβ^3Aβ^3) [Analog S27] | 33.8 | 29.84 | 65.13 | reduction in clinical disability score [3]: ~60%; delay of clinical onset of disease [1]: ~3 days; suppression after pre-treatment [4]: 55-60%; inhibition of binding of biotinylated MBP (85-99) to HLA DR2 [5]: approximately 60%; decrease in IFN-γ levels [6]: approximately 70%; change in IL-4 levels [6]: only a marginal increase; duration of effect once the treatment is stopped ([2]; FIG. 2b): up to two weeks; efficacy relative to GA [2]: approximately two times better; optimum daily dosage ([2]; dosage kinetic experiments, rodents, FIGS. 2c and 2d): 5 mg/kg body weight; recall response to MBP (85-109), CD4+ T-cell fraction (3[H]-thymidine proliferation) ([7]; 0.5 mg in IFA a day before immunization, spleenocytes after two weeks, FIG. 1a): considerable suppression; recall response to MBP (85-109), CD8+ T-cell fraction, suppression compared to J5 or GA treated group ([7]; 0.5 mg in IFA a day before immunization, spleenocytes after two weeks, FIG. 1b): much more pronounced; recall response to purified protein derivative (PPD) ([7]; specificity control antigen, FIGS. 1a and b): remained unaffected |
| Glatiramer Acetate [GA, reference compound] | 0 | −3.957 | 31.3369 | success rate in reducing the relapses [8]: 30%; effect on clinical onset of disease [1]: no effect on clinical onset of disease; inhibition of binding of biotinylated MBP (85-99) to HLA DR2 [5]: ~21%; decrease in IFN-γ levels [6]: approximately 70%; rise in IL-4 levels [6]: ~2 fold; Therapeutic activity = % reduction in cumulative clinical disability score ([2]; amino acid copolymers, 0.1 mg daily for two weeks from day 11): 27.12% |
| EKPKVEAYKAAAAPA [Analog J5, reference compound] | 3.957 | 0 | 35.29 | effect on clinical onset of disease [1]: no effect on clinical onset of disease; change in IL-4 levels [6]: only a marginal increase |
| FPFNVPTNIVKVERH (Peptide analog) [scrambled MBP (85-99)] | – | – | – | inhibition of binding of biotinylated MBP (85-99) to HLA DR2 [5]: ~15% |
| KVEAYKAAAAβ [Analog S55] | −2.781 | −6.738 | 28.56 | – |
| EKPKVEAYKAAAAPAβ^3 [Analog S1] | 2.995 | −0.9626 | 34.33 | – |
| EβKβPKβ^3Vβ^3Eβ^3AβYβ^3Kβ^3AβAβAβAβ^3PAβ [Analog S79] | 28.77 | 24.81 | 60.11 | – |
| EKPKVEAYβKβAβAβAβAβPAβ [Analog S47] | 20.96 | 17.01 | 52.3 | – |
| KVEAYKAAAA (Peptide analog) [Analog J5a, reference compound] | −2.995 | −6.952 | 28.34 | – |
| KVEAYβ^3Kβ^3 (KVEA[β3hY][β3hK]) [Analog S29] | −1.07 | −5.027 | 30.27 | – |
| EKPKVEAYKAAβ^3Aβ^3Aβ^3Pβ^3Aβ^3 [Analog S5] | 11.02 | 7.059 | 42.35 | – |
| KVEAYKAAAβAβ [Analog S56] | −0.4278 | −4.385 | 30.91 | – |
| KVEAYKβ^3Aβ^3Aβ^3Aβ^3Aβ^3 [Analog S21] | 17.97 | 14.01 | 49.3 | – |
| KVEAYKAβAβAβAβ [Analog S58] | 11.02 | 7.059 | 42.35 | – |
| KVEβAβYβKβAβAβAβAβ [Analog S62] | 5.455 | 1.497 | 36.79 | – |
